In one data set the test system is KBM7 cells. The experiment in a line: Dose-ranging cellular viability assays in neddylation-impaired isogenic KBM7 cells. It is filed as cell-based, human. Particulars: for Cytotoxic activity / sensitivity in COPS8- or CAND1-modified cells: KBM7 cells modified in COPS8 or CAND1 versus non-modified control. As to the method:
KBM7 cells mutated for five core genes were isolated and the underlying CRISPR-induced mutations were truncations leading to full knockouts (CAND1) or hypomorphic alleles (UBE2M, COPS8, COPS7B, GPS1). […] The observable shift in efficacy was at least 10-fold and up to 1000-fold, thus providing excellent signal to noise ratios. In sum, neddylation-impaired (NEDD^mut) cell line can be applied to find novel, yet uncharacterized MGs.
This is further exemplified when said cells are treated with the compound CC-885 (a molecular glue that reprograms the substrate receptor cereblon/CRBN to degrade GSPT1), or the PROTAC® compound THAL-SNS-032 (known to reprogram the substrate receptor cereblon/CRBN to degrade the cyclin dependent kinase 9, CDK9) (both see appended FIG. 22).
However, not for every cullin RING ligase (CRL), modifications of the COP9 signalosome subunit 8 (COPS8) or CAND1 (Cullin-associated NEDD8-dissociated protein 1; a substrate receptor exchange factor) lead to an ensuing destabilization via auto-degradation. An example for this is the substrate receptor VHL(von-Hippel-Lindau), which is part of the CRL2^VHL ligase complex. […] Therefore, measuring differential sensitivity of cells manipulated to contain altered neddylation states to a molecular glue/PROTAC® compound is a feasible surrogate to measure whether the substrate receptor that is reprogrammed by said molecular glue/PROTAC® undergoes destabilization/auto-degradation upon altering the neddylation states.

The target of data set [1] is T1, CRBN (Homo sapiens, UniProt Q96SW2).
T1 construct: endogenous in cells; host or cells: wild-type cells (KBM7 by context)
T1 sequence (Q96SW2 whole entry): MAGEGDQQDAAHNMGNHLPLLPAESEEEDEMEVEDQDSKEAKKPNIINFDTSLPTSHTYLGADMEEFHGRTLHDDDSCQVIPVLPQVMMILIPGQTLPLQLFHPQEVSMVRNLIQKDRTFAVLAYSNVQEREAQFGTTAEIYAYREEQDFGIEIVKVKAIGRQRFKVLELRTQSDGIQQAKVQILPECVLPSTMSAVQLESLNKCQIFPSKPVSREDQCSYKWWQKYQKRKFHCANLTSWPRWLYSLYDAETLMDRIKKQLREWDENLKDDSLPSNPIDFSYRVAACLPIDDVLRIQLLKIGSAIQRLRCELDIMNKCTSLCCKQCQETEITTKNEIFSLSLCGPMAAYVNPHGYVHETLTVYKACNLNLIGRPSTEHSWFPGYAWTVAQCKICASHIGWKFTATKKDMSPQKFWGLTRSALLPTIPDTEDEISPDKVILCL
The experiment in a line: Re-stabilization of CRBN by small-molecule degraders after CSN5i-3 pretreatment (western blot). The data set is classed as cell-based. Particulars: WT cells pretreated 2 h with DMSO, 25, 100 or 500 nM CSN5i-3, then 500 nM compound. As to the method: To explore the re-stabilization of SR upon ligand treatment, WT cells were pretreated with different doses of CSN5i-3 for 2h to firstly induce SR autodegradation. As a proof of principle, the SR CRBN was used, and the autodegradation by WB was checked (FIG. 2B-D).
On the technique in general: In western blotting, separated proteins are transferred to a membrane and probed.

Data set [2] deals with T1, CRBN. The experiment in a line: Stabilization of CRBN by CC-885 pretreatment followed by CSN5i-3 (western blot). It is filed as cell-based. Conditions: 125 nM CC-885 for 15 or 30 min before 100 nM CSN5i-3 for 2 hours. As to the method: Cells were first pretreated with the small-molecule (CC-885) known to recruit a new substrate (GSPT1=Eukaryotic peptide chain release factor GTP-binding subunit ERF3A) to the substrate receptor CRBN of the CRL4^CRBN ligase. Pre-treatment was conducted for either 15 or 30 minutes. Afterwards, cells were treated with the CSN (COP9 signalosome) inhibitor (CNS5i-3) for 2 hours. […] This was shown in FIG. 3 by comparing lane 2 of the CRBN blot (pre-treatment with DMSO/vehicle control) to lanes 4 (15 min pre-treatment) and lane 6 (30 min pre-treatment) of the same western blot. The same blot also documents that the present invention provides for means and methods how to determine the neddylation status of cullins constituting CRLs. As evident from FIG. 3, cells comprising a normal neddylation status or a steady-state neddylation status show two bands corresponding to a non-neddylated and a neddylated cullin, respectively. Average increase of neddylated to non-neddylated approximately 9 kDa. […]

Data set [3] deals with CRBN. The experiment in a line: CRBN levels by western blot after CSN5i-3 treatment (autodegradation). It is filed as cell-based, human. The source says: As a first approach, the levels of cereblon (CRBN), the SR of the CRL4^CRBN E3 ligase machinery, were checked by western blot (WB) in the mutant backgrounds. A strong decrease in CRBN levels in the COPS8 (COP9 signalosome complex subunit 8)-mutant cells was observed, and a less prominent downregulation in the CAND1-deficient cells (FIG. 1B). […] The CSN-impaired condition was used as a focus as this condition was sought to chemically mimic the genetic mutants. […] CRBN destabilization following CSN5i-3 treatment were rescued in CUL4A-deficient cells (FIG. 1E) or in cells lacking UBE2G1 (ubiquitin-conjugating enzyme E2 G1), a E2 ubiquitin-conjugating enzyme previously related to target degradation via the CRL4^CRBN ligase (FIG. 1F).

The target in another data set is T2, DCAF15 (Homo sapiens, UniProt Q66K64).
T2 construct: expressed in transfected cells
T2 sequence (Q66K64 whole entry): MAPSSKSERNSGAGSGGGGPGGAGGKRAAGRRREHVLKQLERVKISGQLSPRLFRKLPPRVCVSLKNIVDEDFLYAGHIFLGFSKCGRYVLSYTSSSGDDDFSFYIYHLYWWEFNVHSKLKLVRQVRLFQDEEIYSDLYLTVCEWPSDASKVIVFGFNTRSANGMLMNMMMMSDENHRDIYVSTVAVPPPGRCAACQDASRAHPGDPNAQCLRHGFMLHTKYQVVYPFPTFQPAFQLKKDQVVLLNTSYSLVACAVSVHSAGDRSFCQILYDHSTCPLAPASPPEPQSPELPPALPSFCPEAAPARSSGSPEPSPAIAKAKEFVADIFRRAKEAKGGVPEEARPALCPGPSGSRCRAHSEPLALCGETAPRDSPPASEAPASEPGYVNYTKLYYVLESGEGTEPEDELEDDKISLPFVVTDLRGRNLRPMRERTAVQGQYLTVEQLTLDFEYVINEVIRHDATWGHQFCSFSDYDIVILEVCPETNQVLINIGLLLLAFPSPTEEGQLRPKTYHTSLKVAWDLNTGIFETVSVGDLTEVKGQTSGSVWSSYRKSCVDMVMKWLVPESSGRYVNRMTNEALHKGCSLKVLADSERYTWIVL
The experiment in a line: DCAF15 HiBit/LgBit luciferase assay (knock-in or ectopic, live-cell or lytic detection). The data set is classed as cell-based. As to the method: Generation of HiBit DCAF15 knock-in cells: HEK293t WT cells at 70-80% confluency were transiently transfected in a 6 well plate with a mix of 3 ug Cas9-sgRNA vector (PX458, addgene #48138, containing sgRNA [NT]), 6 ug of single stranded oligonucleotide donor (ssOND, 20 bp homology flanking the cut site) and 3.6 ug polyethylenimine (FIGS. 10 and 12). 72 hrs post-transfection cells were sorted (SH800 Cell sorter, SONY) for GFP positive cells and recovered for 24 hrs in media. Cells were subsequently seeded at a limiting dilution to generate single clones. Clones were tested after outgrowth for HiBit expression by seeding clonal cells in a black clear bottom 384 well plate and adding Nano-Glo HiBit Lytic buffer (Promega, N3030) reconstituted with recombinant LgBit and Nano-Glo HiBit Lytic Substrate in a 1:1 ratio. HiBit-expressing clones were validated by western blotting and detection of luciferase signal (Promega, N2410) at the correct size. For live cell luciferase detection (FIGS. 11 and 13) 7000 HEK293t cells with a HiBit knock-in at the N-terminus of DCAF15 and stable ectopic expression of LgBit were seeded in 10 uL per well into a black, clear-bottom 384 well plate (Corning, #3764) and incubated over night. 20 uL of media containing 1× Endurazine (Promega, N2570) was added to each well and incubated for 1 hour followed by a baseline luciferase measurement using an EnVision plate reader (Perkin Elmer). Subsequently CSN5i-3 or an equal volume of DMSO was added in 10 uL of media to a final concentration of 500 nM in the assay volume of 40 uL. Luciferase signal was measured hourly for 24 hours. For lytic HiBit detection (FIGS. 11 and 14) 10000 cells were seeded in 10 uL per well into a black clear bottom 384 well plate. After recovery cells were treated by addition of iCSN5-3 or an equal volume of DMSO in 10 uL of media to the cells. After the indicated treatment time cells were lysed by adding 20 uL Nano-Glo HiBit Lytic buffer (Promega, N3030) reconstituted with recombinant LgBit and Nano-Glo HiBit Lytic Substrate. Luciferase signal of each well was normalized to the mean DMSO luciferase signal yielding fold-change over DMSO. Luciferase signal was detected essentially as stated for FIG. 13 with the exception that indisulam (Sigma-Aldrich, SML1225) was added together with CSN5i-3 to cells in 10 uL of media to reach the indicated final concentration (FIG. 15). Luciferase signal of each well and timepoint was normalized to the mean DMSO luciferase signal yielding fold-change over DMSO. […] Luciferase signal was detected essentially as stated for FIG. 15 with the exception that indisulam and dCEMM.1 were added together with iCSN5-3 to cells in the 10 uL treatment to a final concertation of 10 uM (FIG. 17). Luciferase signal of each well and timepoint was normalized to the mean DMSO luciferase signal yielding fold-change over DMSO.
On the technique in general: HiBiT is a short tag that completes a luciferase, so light tracks the accessible tagged protein.

For data set [4], the system named is CRL substrate receptors (SRs) in KBM7 cells. The experiment in a line: Global expression proteomics of substrate receptors after CSN5i-3 treatment. The data set is classed as cell-based, human. Conditions: 1 μM, 8 h, versus DMSO. As to the method: In order to survey in an unbiased manner the subset of SRs undergoing autodegradation, global expression proteomics was applied to the different genetic backgrounds: WT, COPS8-mutant and CAND1-deficient KBM7 cells. In addition, expression proteomics following cellular treatment with CSN5i-3 was employed (1 μM, 8 h) (FIG. 1G-I).

The target in data set [5] is T1, CRBN. Briefly: CRBN HiBit bioluminescence assay in COPS8 knock-out cells (Example 2). The data set is classed as cell-based. Particulars: 4 hours of compound treatment. As to the method: Afterwards, CRISPR/Cas9 is used to knock-out the CSN (COP9 signalosome) subunit COPS8 (COP9 signalosome complex subunit 8). Ensuing loss of CRBN HiBit is assayed via immunoblot and loss of bioluminescence. […] After 4 hours of compound treatment, CRBNHiBit levels are assayed via bioluminescence by adding the detection reagent, which consists of a lysis buffer and recombinant LgBit protein. Within 10 minutes after addition of the detection reagent, luminescence is read with a standard plate reader, and is a proxy for drug-induced changes in CRBN levels.

We go through 5 molecules from patent US20210293788A1, “METHOD FOR IDENTIFYING A CHEMICAL COMPOUND OR AGENT INDUCING UBIQUITINATION OF A PROTEIN OF INTEREST” (CeMM - Forschungszentrum fur Molekulare Medizin GmbH, priority 2018, published 2021).

“Also recorded” adds a separate entry of the source.

Take `Cc1ncsc1-c1ccc([C@H](C)NC(=O)[C@@H]2C[C@@H](O)CN2C(=O)[C@@H](NC(=O)COCCCOCCNC(=O)C[C@@H]2N=C(c3ccc(Cl)cc3)c3c(sc(C)c3C)-n3c(C)nnc32)C(C)(C)C)cc1` [ARV-771]: the “Cytotoxic activity / sensitivity in COPS8- or CAND1-modified cells” value (from here on “Cytotoxic activity / sensitivity”) with KBM7 cells is on record as “sensitivity to ARV-771; also recorded: do not display an altered sensitivity”.
Turning to `Cc1ccc(NC(=O)NCc2ccc3c(c2)CN(C2CCC(=O)NC2=O)C3=O)cc1Cl` (stereo not drawn) [CC-885], the “CRBN stabilization (western blot)” value was “time-dependent stabilization of CRBN; also recorded: CRBN was stabilized upon CC-885 treatment in cells treated with DMSO, 25 nM, 100 nM and 500 nM CSN5i-3” on CRBN [1]; “protects from CRBN auto-degradation; also recorded: CRBN was stabilized upon CC-885 treatment in the presence of CSN5i-3” on CRBN [2]. For the same molecule, the “Cytotoxic activity / sensitivity” value with KBM7 cells is “reduced activity; also recorded: lose their cytotoxic activity”.
As for `CC(C)n1nc(C(F)F)cc1C(=O)Nc1ccc([C@H]2[C@@H](O)CCCc3cncn32)c(-c2ccccc2)c1` [CSN5i-3], the “CRBN level (western blot) after CSN5i-3” value was “Downregulation of CRBN is rescued” with CRBN [3] (CUL4A-deficient cells (sgRNA targeting CUL4A)); “rescued in cells treated with two sgRNAs targeting UBE2G1” in the data set with CRBN [3] (cells lacking UBE2G1 (sgRNA), 100 nM CSN5i-3, 0, 2, 4 and 6 hours). For the same molecule, in the data set with CRBN [3] (cells treated with DMSO, MLN4924 or CSN5i-3), the “CRBN level (western blot)” value is listed as “recapitulate CRBN downregulation; also recorded: Downregulation of CRBN is recapitulated”. Besides, the “DCAF15 level (luciferase signal) after CSN5i-3” value on DCAF15 (live cells, HiBit-HA knock-in at DCAF15 locus, 500 nM) is on record as “DCAF15 destabilization”; at DCAF15 (lytic detection, HiBit-HA knock-in at DCAF15 locus) it was “DCAF15 destabilization”; at DCAF15 (lytic detection, ectopic overexpression of HiBit-HA-DCAF15) it was “DCAF15 destabilization”. Also, in data set [4], the “CRBN abundance (expression proteomics)” value is on record as “Downregulation of CRBN”. For the same molecule, the “Substrate receptors destabilized (expression proteomics)” value in data set [4] is given as “only affected a subset of the SRs associated to each of the cullins”.
Consider `CC(C)(C)c1cnc(CSc2cnc(NC(=O)C3CCN(CC(=O)NCCOCCOCCOCCNc4cccc5c4C(=O)N(C4CCC(=O)NC4=O)C5=O)CC3)s2)o1` (stereo not drawn) [THAL-SNS-032], for which the “CRBN stabilization (western blot)” value at CRBN [1] (listed as SNS-THAL-032) was “time-dependent stabilization of CRBN; also recorded: CRBN was stabilized upon SNS-THAL-032 treatment in cells treated with DMSO, 25 nM and 100 nM CSN5i-3”. The “Cytotoxic activity / sensitivity” value in the data set with KBM7 cells is reported as “reduced activity”.
In the case of `Cc1sc2c(c1C)C(c1ccc(Cl)cc1)=N[C@@H](CC(=O)NCCCCCCCCNC(=O)COc1cccc3c1C(=O)N(C1CCC(=O)NC1=O)C3=O)c1nnc(C)n1-2` (stereo partly drawn) [dBET6], at CRBN [1], the “CRBN stabilization (western blot)” value is “time-dependent stabilization of CRBN; also recorded: CRBN was stabilized upon dBET6 treatment in cells treated with DMSO, 25 nM and 100 nM CSN5i-3”. The “Cytotoxic activity / sensitivity” value in the data set with KBM7 cells is recorded as “reduced activity; also recorded: lose their cytotoxic activity”. Further, the “Resistance of mutant cells in cellular viability assay” value with KBM7 cells (KBM7 cells mutated in CAND1, UBE2M, COPS8, COPS7B or GPS1 versus wild type) is listed as “caused resistance”. The “CRBN HiBit levels (bioluminescence)” value at CRBN [5] is listed as “quick stabilization of CRBN HiBit levels”.
